Assay results from patent publication US12371404B2, “Fused bicyclic alkylene linked imidodicarbonimidic diamides, methods for synthesis, and uses in therapy” (NovaTarg, Inc., priority 2016, dated 2025).
Structures can show the parent of a compound that is named as a salt. One block for each compound: values may come before it.

Assays:
control (Neo) cells = test: Oxygen consumption rate (OCR) assay, control (Neo) HEK293 cells; assay type: cell-based; settings: Homo sapiens; control (Neo) HEK293 cells; MitoXpress Xtra, 2 hours; read-out: Oxygen Consumption Rate (OCR) IC50, Neo
Text: Diabetologia 2011, 54 (12): 3101-3110, each incorporated by reference with regard to such testing. The compounds of the present invention are similarly tested in an oxygen consumption rate (OCR) assay to evaluate the functional activity of test compounds in cells.
(§1) In brief, the assay uses HEK293 cells stably transfected with the human OCT1, OCT2, OCT3, PMAT, or MATE1 transporters to determine a compound's relative transporter selectivity and its effect on the rate of oxygen consumption relative to control (Neo) cells. The MitoXpress Xtra oxygen-sensitive fluorophore is used to monitor oxygen consumption rates in the presence and absence of compound treatments. The analogs were tested at eight (8) different concentrations in triplicate to determine a relative IC50 value.
(§2) A summary description of the protocol is as follows:
(§3) HEK293 cells transformed with human organic cation transporters were plated in collagen coated, 96-well black-walled microclear plates (Greiner-Bio 1, #655956) at 60,000 cells per well in growth medium (DMEM (LG), 10% FBS, 400 μg/ml G418). Cells were incubated overnight to allow attachment. The outer columns (1 and 12) are not seeded with cells, as controls. The next day, plating medium was removed and replaced with 150 μL of assay medium (DMEM/F12 (PRF), 5% FBS, antibiotics) containing compound dilutions. A 3-fold serial dilution was prepared in the assay medium and transferred to the empty wells. The outer columns and column 11 received 150 μL of assay medium only. 10 μL of MitoXpress Xtra reagent was added to each test well, and 100 μL of pre-warmed mineral oil was overlayed in each well to create a seal. Dual read time-resolved fluorescence (BMG FluoStar Galaxy reader) was measured over 2 hours with measurements taken every 2 minutes. Excitation is 340 nm, Emission is 650 nm. For lifetime analysis, two measurements per well were taken: 1) delay of 30 μs, with a window of 30 μs; and 2) delay of 70 μs with a window of 30 μs. Background TRF values from A1-D1 were subtracted from all readings. A ratiometric analysis was performed to determine changes in the Lifetime fluorescence signal:Lifetime (μs) [T]=(D2−D1)/ln(W1/W2), where D is delay; W is fluorescence window value at each time point. Lifetime slopes were calculated using each Lifetime measurement over time. IC50 values were determined by plotting lifetime slope values vs. compound concentration.

human MATE1 = target: T1, human MATE1 (Homo sapiens, UniProt Q96FL8); test: Oxygen consumption rate (OCR) assay, HEK293 cells transfected with MATE1; settings: for inhibition at 1000 µM: HEK293, read-out: Oxygen Consumption Rate (OCR), MATE 1, % Inhibition at 1000 μM test concentration
T1 sequence (Q96FL8 1-570): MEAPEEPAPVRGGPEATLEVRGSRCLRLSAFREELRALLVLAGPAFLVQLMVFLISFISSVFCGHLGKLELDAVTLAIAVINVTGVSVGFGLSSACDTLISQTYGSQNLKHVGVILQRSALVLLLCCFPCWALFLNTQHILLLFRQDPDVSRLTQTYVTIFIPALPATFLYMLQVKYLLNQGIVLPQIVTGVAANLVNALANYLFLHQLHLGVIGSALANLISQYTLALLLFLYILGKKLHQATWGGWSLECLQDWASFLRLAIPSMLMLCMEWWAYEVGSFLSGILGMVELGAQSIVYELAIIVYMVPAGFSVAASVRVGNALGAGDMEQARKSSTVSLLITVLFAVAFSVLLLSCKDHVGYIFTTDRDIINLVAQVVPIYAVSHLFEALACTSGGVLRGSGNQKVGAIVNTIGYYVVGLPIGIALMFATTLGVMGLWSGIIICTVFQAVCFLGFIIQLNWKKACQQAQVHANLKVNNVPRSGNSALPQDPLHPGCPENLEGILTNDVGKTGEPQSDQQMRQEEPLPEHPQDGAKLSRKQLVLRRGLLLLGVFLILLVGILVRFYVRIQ
Text: The compounds of the present invention are similarly tested in an oxygen consumption rate (OCR) assay to evaluate the functional activity of test compounds in cells.
as §1, §2
as §3, with “Cells” for “HEK293 cells transformed with human organic cation transporters were plated in collagen coated, 96-well black-walled microclear plates (Greiner-Bio 1, #655956) at 60,000 cells per well in growth medium (DMEM (LG), 10% FBS, 400 μg/ml G418). Cells”

- IC50 (human MATE1): 168 µM
Structure (SMILES): Cn1cc(CCNC(=N)NC(=N)N)c2cccnc21 [Ex 39, 1-(2-(1-methyl-1H-pyrrolo[2,3-b]pyridin-3-yl)ethyl)imidodicarbonimide diamide, trifluoroacetic acid salt]
- IC50 (control (Neo) cells): 205 µM

Structure (SMILES): Cc1[nH]c2ccc(F)cc2c1CCNC(=N)NC(=N)N [Ex 29, 1-[2-(5-fluoro-2-methyl-1H-indol-3-yl)ethyl]imidodicarbonimide diamide, trifluoroacetic acid salt]
- IC50 (control (Neo) cells): > 100 µM

Structure (SMILES): N=C(N)NC(=N)NCCc1c[nH]c2c(F)cc(Cl)cc12 [Ex 64, 1-[2-(5-chloro-7-fluoro-1H-indol-3-yl)ethyl]imidodicarbonimide diamide, trifluoroacetic acid salt]
- IC50 (control (Neo) cells): 282 µM
- IC50 (human MATE1): 370 µM

Structure (SMILES): N=C(N)NC(=N)NCCc1c[nH]c2cc(F)c(Cl)cc12 [Ex 58, 1-[2-(5-chloro-6-fluoro-1H-indol-3-yl)ethyl]imidodicarbonimide diamide, trifluoroacetic acid salt]
- IC50 (control (Neo) cells): 191 µM
- IC50 (human MATE1): 35 µM

Structure (SMILES): CCOc1ccc2[nH]cc(CCNC(=N)NC(=N)N)c2c1 [Ex 12, 1-[2-(5-ethoxy-1H-indol-3-yl)ethyl]imidodicarbonimide diamide trifluoroacetic acid salt]
- IC50 (control (Neo) cells): 1150 µM
- inhibition at 1000 µM (human MATE1): -8%

Structure (SMILES): N=C(N)NC(=N)NCCc1c[nH]c2ccc(C(F)(F)F)cc12 [Ex 25, 1-[2-(5-trifluoromethyl-1H-indol-3-yl)ethyl]imidodicarbonimide diamide, trifluoroacetic acid salt]
- IC50 (control (Neo) cells): 51 µM
- inhibition at 1000 µM (human MATE1): 44%

- IC50 (human MATE1): 474 µM
Structure (SMILES): Cc1[nH]c2ncccc2c1CCNC(=N)NC(=N)N [Ex 44, 1-(2-(2-methyl-1H-pyrrolo[2,3-b]pyridin-3-yl)ethyl)imidodicarbonimide diamide, trifluoroacetic acid salt]
- IC50 (control (Neo) cells): 1660 µM

Structure (SMILES): Cn1cc(CCNC(=N)NC(=N)N)c2ccc(F)cc21 [Ex 52, 1-[2-(6-fluoro-1-methyl-1H-indol-3-yl)ethyl]imidodicarbonimide diamide, trifluoroacetic acid salt]
- IC50 (control (Neo) cells): 388 µM
- IC50 (human MATE1): 32 µM

Structure (SMILES): Cc1cccc2[nH]cc(CCNC(=N)NC(=N)N)c12 [Ex 60, 1-[2-(4-methyl-1H-indol-3-yl)ethyl]imidodicarbonimide diamide, trifluoroacetic acid salt]
- IC50 (control (Neo) cells): 1640 µM
- IC50 (human MATE1): 636 µM

- IC50 (human MATE1): 218 µM
Structure (SMILES): CN(C)C(=N)NC(=N)NCCc1c[nH]c2ccc(OC(F)(F)F)cc12 [Ex 33, 3-(2-(5-trifluoromethoxy-1H-indol-3-yl)ethyl)-1,1-dimethyl imidodicarbonimide diamide hydrochloride]
- IC50 (control (Neo) cells): 156 µM

Structure (SMILES): CN(C)C(=N)NC(=N)NCCc1c[nH]c2ncccc12 [Ex 30, 1-(2-(1H-pyrrolo[2,3-b]pyridin-3-yl)ethyl)-1,1-dimethyl imidodicarbonimide diamide trifluoroacetic acid salt]
- IC50 (control (Neo) cells): 864 µM

Structure (SMILES): N=C(N)NC(=N)NCCc1c[nH]c2ccc(F)c(Cl)c12 [Ex 47, 1-[2-(4-chloro-5-fluoro-1H-indol-3-yl)ethyl]imidodicarbonimide diamide, trifluoroacetic acid salt]
- IC50 (control (Neo) cells): 101 µM
- IC50 (human MATE1): 22 µM

Structure (SMILES): N=C(N)NC(=N)NCCc1c[nH]c2cc(F)c(F)cc12 [Ex 28, 1-[2-(5,6-difluoro-1H-indol-3-yl)ethyl]imidodicarbonimide diamide, trifluoroacetic acid salt]
- IC50 (control (Neo) cells): 604 µM

- inhibition at 1000 µM (human MATE1): -17%
Structure (SMILES): N=C(N)NC(=N)NCCc1c[nH]c2ccc(OCCO)cc12 [Ex 15, 1-(2-(5-(2-hydroxyethoxy)-1H-indol-3-yl)ethyl)imidodicarbonimide diamide trifluoroacetic acid salt]
- IC50 (control (Neo) cells): > 10000 µM

Structure (SMILES): CN(C)C(=N)NC(=N)NCCc1c[nH]c2ccc(F)cc12 [Ex 24, 3-(2-(5-fluoro-1H-indol-3-yl)ethyl)-1,1-dimethyl imidodicarbonimide diamide hydrochloride]
- IC50 (control (Neo) cells): 1590 µM
- IC50 (human MATE1): > 10000 µM

Structure (SMILES): CN(CCc1c[nH]c2cc(F)ccc12)C(=N)NC(=N)N [Ex 65, 1-methyl-1-[2-(6-fluoro-1H-indol-3-yl)ethyl]imidodicarbonimide diamide, trifluoroacetic acid salt]
- IC50 (control (Neo) cells): 8410 µM
- IC50 (human MATE1): 354 µM

Structure (SMILES): COc1cccc2[nH]cc(CCNC(=N)NC(=N)N)c12 [Ex 14, 1-[2-(4-methoxy-1H-indol-3-yl)ethyl]imidodicarbonimide diamide trifluoroacetic acid salt]
- IC50 (control (Neo) cells): 1310 µM
- inhibition at 1000 µM (human MATE1): 39%

Structure (SMILES): CC(C)(CNC(=N)NC(=N)N)c1c[nH]c2cc(F)ccc12 [Ex 63, 1-[2-(6-fluoro-1H-indol-3-yl)-2-methylpropyl]imidodicarbonimide diamide, trifluoroacetic acid salt]
- IC50 (control (Neo) cells): 1750 µM
- IC50 (human MATE1): 3790 µM

Structure (SMILES): N=C(N)NC(=N)NCCc1c[nH]c2cc(F)c(F)c(F)c12 [Ex 50, 1-[2-(4,5,6-trifluoro-1H-indol-3-yl)ethyl]imidodicarbonimide diamide, trifluoroacetic acid salt]
- IC50 (control (Neo) cells): 181 µM
- IC50 (human MATE1): 102 µM

Structure (SMILES): N=C(N)NC(=N)NCCc1c[nH]c2ccc(Cl)c(F)c12 [Ex 49, 1-[2-(5-chloro-4-fluoro-1H-indol-3-yl)ethyl]imidodicarbonimide diamide, trifluoroacetic acid salt]
- IC50 (control (Neo) cells): 155 µM
- IC50 (human MATE1): 64 µM

Structure (SMILES): COc1ccc2[nH]c(C)c(CCNC(=N)NC(=N)N)c2c1 [Ex 19, 1-[2-(5-methoxy-2-methyl-1H-indol-3-yl)ethyl]imidodicarbonimide diamide, trifluoroacetic acid salt]
- IC50 (control (Neo) cells): > 3000 µM
- inhibition at 1000 µM (human MATE1): 14%

Structure (SMILES): CC(CNC(=N)NC(=N)N)c1c[nH]c2cc(F)ccc12 (stereo not drawn) [Ex 62, 1-[2-(6-fluoro-1H-indol-3-yl)propyl]imidodicarbonimide diamide, trifluoroacetic acid salt]
- IC50 (control (Neo) cells): 3430 µM
- IC50 (human MATE1): 3430 µM

Structure (SMILES): N=C(N)NC(=N)NCCc1c[nH]c2ncccc12 [Ex 20, 1-(2-(1H-pyrrolo[2,3-b]pyridin-3-yl)ethyl)imidodicarbonimide diamide hydrochloride]
- IC50 (control (Neo) cells): 605 µM

Structure (SMILES): Cc1cc2c(CCNC(=N)NC(=N)N)c[nH]c2cc1F [Ex 37, 1-[2-(6-fluoro-5-methyl-1H-indol-3-yl)ethyl]imidodicarbonimide diamide, trifluoroacetic acid salt]
- IC50 (control (Neo) cells): 326 µM
- IC50 (human MATE1): 70 µM

Structure (SMILES): N=C(N)NC(=N)NCCc1c[nH]c2c(F)cc(F)cc12 [Ex 27, 1-[2-(5,7-difluoro-1H-indol-3-yl)ethyl]imidodicarbonimide diamide, trifluoroacetic acid salt]
- IC50 (control (Neo) cells): 291 µM
